# Laboratory results taken from patent publication US20140165223A1, “TNF SUPERFAMILY TRIMERIZATION INHIBITORS” (B.S.R.C. "Alexander Fleming", priority 2011, published 2014).
# How the values were obtained:
# [1] = molecular target: T1, BAFF (Homo sapiens, UniProt Q9Y275); assay: BAFF cross-linking and Western (trimer formation); assay type: biochemical; settings: DSS cross-linking
# T1 construct: a cDNA encoding the core ectodomain of human BAFF residues 134-285 (17.5 kD), with or without the G249R substitution; GST (N, cleaved yes); made in house; host or cells: E. coli BL21
# T1 sequence (Q9Y275 134-285): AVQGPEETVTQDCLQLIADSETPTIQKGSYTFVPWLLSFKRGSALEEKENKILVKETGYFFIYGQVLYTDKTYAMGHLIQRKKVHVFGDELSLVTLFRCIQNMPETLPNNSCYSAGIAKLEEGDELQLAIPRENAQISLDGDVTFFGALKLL
# Description: (§1) Glycine at codon 278 of mouse RANKL is highly conserved among various members of the TNF superfamily. In order to investigate whether this glycine to arginine substitution is also critical for trimerization in other TNF superfamily members, we reproduced this mutation in human BAFF (BAFF^G249R), a cytokine that activates B lymphocytes. Thus, we produced recombinant GST-BAFF in E coli and subsequently the soluble BAFF was released from GST by proteolytic cleavage. […] To examine whether soluble BAFF^G249R binds to BAFF receptor (BAFFR), serial dilutions of human BAFFR-Fc were incubated with immobilized soluble BAFF or BAFF^G249R (FIG. 21B). […] Thus, substitution of this conserved glycine abrogates trimerization not only in RANKL but also in other TNF superfamily members such as TNF, BAFF and possibly in many more.
# The chemical cross-linking reagent disuccinimidyl suberate (DSS, Sigma) was used to examine the trimeric property of BAFF as previously described (Douni et al., 2012). Various amounts of BAFF proteins in PBS buffer (pH 7.5) were mixed with 1 mM DSS (the molar ratio of DSS is 10:1). The cross-linking reactions were carried out for 1 hour at room temperature and terminated with 50 mM Tris (pH 7.5) for 30 minutes. Proteins from reaction mixtures were separated on 12% SDS-PAGE and proceeded in Western blot using a polyclonal anti-BAFF antibody (PeproTech).
# [2] = tested on: BAFFR-Fc; assay: BAFF/BAFF receptor ELISA; assay type: binding; settings: serial dilutions of human BAFFR-Fc
# Description: as §1
# Nunc plates were coated with 3 μg/ml recombinant soluble human BAFF or BAFF^G249R and incubated with increasing amount of recombinant human BAFFR-Fc (R&D Systems). BAFFR binding was detected with a horseradish peroxidase (HRP) conjugated goat anti-human IgG (Fc) (SouthernBiotech, Birmingham, USA) using o-phenylenediamine (OPD) substrate (Thermo Scientific Pierce) that was measured at 490 nm.
# [3] = molecular target: T2, human RANKL (Homo sapiens, UniProt O14788); assay: RANKL-mediated osteoclastogenesis assay with human RANKL; assay type: cell-based
# T2 construct: purchased Peprotech
# T2 sequence (O14788 143-317 limits assumed): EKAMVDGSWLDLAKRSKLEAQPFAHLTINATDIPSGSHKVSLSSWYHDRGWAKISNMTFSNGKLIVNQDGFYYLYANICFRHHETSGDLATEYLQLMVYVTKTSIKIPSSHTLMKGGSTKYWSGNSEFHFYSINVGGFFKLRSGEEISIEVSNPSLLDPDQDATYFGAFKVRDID
# Description: However, SPD304 contains a potentially toxic 3-substituted indole moiety that produces reactive intermediates that possibly cause toxicities by covalently binding to nucleophilic residues of protein and/or DNA. […] These small molecules have been also tested as regards their effect on cell toxicity (FIG. 14C).
# BM cells were collected after flushing out of femurs and tibiae, subjected to gradient purification using FICOLL-PAQUE™ (GE Healthcare), plated in 96-well plates at a density of 6×10^4 cells per well and cultured in αMEM medium (GIBCO) containing 10% fetal bovine serum supplemented with 50 ng/ml human RANKL (Peprotech) and 25 ng/ml M-CSF (R&D Systems) for 5 days. […] Osteoclasts were stained for TRAP activity (Sigma).
# [4] = molecular target: T3, binding of human RANKL to its receptor RANK (Homo sapiens, UniProt O14788); assay: RANKL/RANK ELISA; settings: peptides 3-100 μM, dose dependent
# T3 construct: a cDNA encoding the core ectodomain of human RANKL residues 143-317 (20 kD), was cloned into pGEX-6P-1; GST (N, cleaved yes); host or cells: Escherichia coli BL21 (RANKL)
# T3 sequence (O14788 143-317): T2 sequence (O14788 143-317 limits assumed)
# Experimental: Nunc plates were coated with 100 μl of 250 ng/ml recombinant soluble human RANK-Fc (R&D Systems) overnight. Recombinant soluble human RANKL at 200 ng/ml was pre-incubated with increasing amounts of peptides (3-100 μM) for 1 hour at 37° C. and was added in the RANK-coated wells. RANKL binding was detected with a polyclonal goat anti-RANKL antibody (R&D Systems), followed by a horseradish peroxidase (HRP) conjugated horse anti-goat IgG (Vector) using o-phenylenediamine (OPD) substrate (Thermo Scientific Pierce) that was measured at 490 nm.
# [5] = molecular target: T4, GST-RANKL (Mus musculus, UniProt O35235); assay: Ex vivo RANKL-induced osteoclast formation (BM cells, M-CSF + GST-RANKL, TRAP staining); assay type: cell-based; settings: BM cells, 25 ng/ml M-CSF, 80 ng/ml GST-RANKL
# T4 construct: a cDNA encoding the core ectodomain of murine RANKL residues 158-316, with or without the G278R substitution; made in house; host or cells: Escherichia coli BL21
# T4 sequence (O35235 158-316): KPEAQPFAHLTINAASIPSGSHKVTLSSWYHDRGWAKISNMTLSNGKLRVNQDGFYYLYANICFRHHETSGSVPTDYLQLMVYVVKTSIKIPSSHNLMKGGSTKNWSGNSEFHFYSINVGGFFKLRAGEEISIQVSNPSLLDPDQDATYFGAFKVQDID
# Experimental: Instead, WT GST-RANKL (ratio 1:0) induced formation of TRAP+ giant osteoclasts (FIGS. 5A-5C). […] Incubation of WT GST-RANKL with GST at similar concentrations (12.5-100 ng/ml), didn't affect the formation of osteoclasts.
# A novel small molecule inhibitor of TNF trimerization, named SPD304, has been recently reported^[35] to interact with glycine 122 (G122) that corresponds to G278 in RANKL.
# BM cells were collected after flushing out of femurs and tibiae, subjected to gradient purification using FICOLL-PAQUE™ (GE Healthcare), plated in 24-well plates at a density of 5×10^5 cells per well and cultured in αMEM medium (GIBCO) containing 10% fetal bovine serum supplemented with 40 ng/ml RANKL (R&D Systems) and 25 ng/ml M-CSF (R&D Systems) for 5 days. Similarly, splenocytes were collected, plated in 24-well plates at a density of 10^6 cells per well and cultured in the presence of recombinant RANKL and M-CSF for 6 days. GST-RANKL^G278R was pre-incubated with WT GST-RANKL at room temperature for 20 min, prior to the stimulation of the BM cell cultures, in order to enable exchange of the RANKL variants and heterotrimer formation. Small molecule SPD304 (Sigma-Aldrich) was pre-incubated with 80 ng/ml GST-RANKL at various concentrations from 0.25 to 2 μM in αMEM medium for 1 hour at room temperature and then added to culture. Osteoclasts were stained for TRAP activity.
# [6] = MTT survival assay in osteoclast precursors; assay type: cell-based; settings: M-CSF, 1-20 μM, 2 days, read-out: IC50 in MTT survival assay (cell toxicity)
# Experimental: (§2) However, SPD304 contains a potentially toxic 3-substituted indole moiety that produces reactive intermediates that possibly cause toxicities by covalently binding to nucleophilic residues of protein and/or DNA. […] Therefore, we investigated the potential of testing SPD304 derivatives designed to be less toxic with higher specificity for human RANKL. […] These small molecules have been also tested as regards their effect on cell toxicity (FIG. 14C).
# (§3) Bone marrow (BM) cells were plated in 96-well plates at a density of 10^5 cells per well after gradient purification using FICOLL-PAQUE™ (GE Healthcare). BM cells were cultured in αMEM medium (GIBCO) containing 10% fetal bovine serum supplemented with 25 ng/ml M-CSF (R&D Systems) in the presence of the tested compounds at concentrations from 1-20 μM for 2 days (0.1% DMSO). Serum free a-MEM medium containing 0.5 mg/ml MTT [3-(4,5-Dimethylthiazol-2-yl)-2,5-diphenyltetrazolium bromide] was added for 2 hours in a 37° C. CO2 incubator. After removal of the MTT solution, DMSO was added to extract the dye from the cells and cell viability was accessed at 550 nm.
# [7] = tested on: osteoclast precursors; assay: MTT survival assay in osteoclast precursors; assay type: cell-based
# Experimental: as §2, §3
# [8] = molecular target: T5, soluble mouse RANKL (Mus musculus, UniProt O35235); assay: Soluble mouse RANKL preincubated with SPD304: native gel and DSS cross-linking; assay type: biochemical
# T5 construct: a cDNA encoding the core ectodomain of murine RANKL residues 158-316, with or without the G278R substitution; GST (N, cleaved yes); made in house; host or cells: Escherichia coli BL21
# T5 sequence (O35235 158-316): T4 sequence (O35235 158-316)
# Experimental: FIG. 13. Effect of SDP304 on RANKL structure. (Panel A) RANKL dimer with SPD304 located on optimum binding position. G278 is shown with space-filled atoms and SPD304 with doted surface. Cyan and green ribbons represent the two RANKL monomers. Diagram created using PYMOL v1.3. (Panel B) Recombinant WT soluble mouse RANKL (60 ng) was preincubated for 1 hour at 37° C. either with SPD304 at various concentrations from 6-200 μM or without SPD304 (−), resolved on native gel and detected by Western blotting using a polyclonal antibody against RANKL. (Panel C) Recombinant soluble mouse RANKL was preincubated with SPD304 at increasing concentrations from 6-100 μM, was cross-linked with DSS, run on 12% SDS-PAGE and detected by Western blot using an anti-RANKL polyclonal antibody. A representative figure of three independent experiments is shown for Western blots.
# Experimental evidence on the TNF analogue and in silico binding studies on mouse RANKL confirm that the optimal binding position of SPD304, causing trimer inhibition, is located very close (<4 Å) to the G278 mutation position in the structure (FIG. 13, Panel A). To experimentally confirm the interference of the SPD304 with the RANKL structure, soluble mouse RANKL was preincubated with increasing concentrations of SPD304 (6-200 μM) and analyzed in native gels showing the natural conformation of RANKL protein (FIG. 13, Panel B). […]
# [9] = molecular target: TNF (Homo sapiens, UniProt P01375); settings: cited from earlier work
# Sequence of TNF (P01375 77-233 limits assumed): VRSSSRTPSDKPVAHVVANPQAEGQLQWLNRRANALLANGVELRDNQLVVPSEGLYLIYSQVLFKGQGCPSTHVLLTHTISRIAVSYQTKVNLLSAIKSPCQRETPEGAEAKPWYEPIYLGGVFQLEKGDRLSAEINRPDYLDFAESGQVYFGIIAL
molecule,measurement,setting,value
BAFF^G249R: soluble human BAFF residues 134-285 with the G249R substitution,BAFF trimer assembly,[1],failure of spontaneous trimer assembly
same,binding to BAFF receptor,[2],cannot bind to its receptor
HFYSINVGRFFK (RANKL fragment) [peptide 2],inhibition of RANKL function in RANKL-dependent osteoclastogenesis assays,[3]; peptides at 50 μM (FIG. 16A),inhibited the function of RANKL
same,inhibition of binding of human RANKL to RANK,[4],inhibit the binding of human RANKL to its receptor RANK
"Cc1cc2occ(CN(C)CCN(C)Cc3cn(-c4cccc(C(F)(F)F)c4)c4ccccc34)c(=O)c2cc1C [SPD304, 6,7-Dimethyl-3-[[methyl[2-[methyl[[1-[3-(trifluoromethyl)phenyl]-1H-indol-3-yl]methyl]amino]ethyl]amino]methyl]-(4H-1-Benzopyran-4-one)]",formation of TRAP+ multinucleated osteoclasts,[5]; SPD304 at 1 μM,attenuated both the number and the size of TRAP+ multinucleated cells
same,formation of multinuclear TRAP+ osteoclasts,[5]; SPD304 at 2 μM,completely inhibited
same,inhibition of human RANKL function in osteoclastogenesis,[3]; 2 μM,effective in inhibiting human RANKL function
same,IC50 at 2 days,[6],3.4 µM
same,toxic concentrations in MTT survival assay,[7],above 5 μM
same,RANKL forms after chemical cross-linking,"[8]; SPD304 6-100 μM, DSS",dramatic increase of RANKL dimers and monomers
same,RANKL conformation in native gel,"[8]; SPD304 6-200 μM, 1 hour at 37° C.",a second band of lower molecular weight was also evident
same,inhibition of TNF trimerization and function,[9],effectively inhibits TNF trimerization and function
